Measured values from patent US10745360B2, “Quinoxaline compounds, method for preparing the same and use thereof” (Development Center for Biotechnology, priority 2014, dated 2020).

Legend:
B-Raf kinase = target: T1, B-Raf kinase (Homo sapiens, UniProt P15056); assay: B-Raf kinase assay ([33P] incorporation into MEK1 K97R); assay type: biochemical; conditions: recombinant B-Raf, 8 μM ATP, 30 min, 30° C.; read-out: IC50 ranking against B-Raf kinase
T1 construct: purchased Upstate Biotechnology
Description: Inhibition of kinase activity by a test compound disclosed herein was estimated by quantifying the amount of [^33P] incorporation of a substrate in the presence of the test compound. Standard assay conditions were 5 ng of recombinant B-Raf kinase (Upstate Biotechnology) with 500 ng MEK1(Map-erk kinase; K97R) in the assay buffer (8 μM ATP, 0.5 μCi [^33P]ATP (specific activity 3000 Ci/mmol, PerkinElmer), 50 mM Tris/HCl (pH 7.5), and 1 mM EGTA, 1 mM Na3VO4, 1% 2-mercaptoethanol, 0.1% Brij 35, and 0.2 mg/ml BSA) in a final volume of 25 μL. Reactions were incubated at 30° C. for 30 min and stopped by adding 3% phosphoric acid, harvested onto a 96-well GF/B UniFilter (PerkinElmer) using a unifilter harvester (PerkinElmer), and counted with a TopCount microplate scintillation counter (PerkinElmer). The IC50 values of inhibitors were determined after carrying out assays at 3-fold serially diluted concentrations of each compound in duplication. The results were analyzed using linear regression software (GraphPad Prism 4; GraphPad Software Inc.).

[1] = system: B-Raf^V600E mutant A375 melanoma cell; assay: Cell proliferation assay (CELLTITER 96), A375; assay type: cell-based; conditions: Homo sapiens, A-375; A375, 72 hours; read-out: Cytotoxicity (IC50 Ranking) A375 (B-Raf^V600E)
Description: (§1) Inhibition of cell growth by compounds was measured using CELLTITER 96® assay. The cytotoxicity of compounds was evaluated in B-Raf^V600E mutant A375 melanoma cell, B-Raf^V600E mutant COLO205 colon cancer cell, and SK-MEL-2 melanoma cell with wild type B-Raf (B-Raf^wt) and NRASQ^Q61R mutation. A375 and COLO205 cell line were cultured in DMEM containing 10% FCS and incubated at 37° C. in 5% CO2 atmosphere. SK-MEL-2 cell line was cultured in MEM containing 10% FCS and incubated at 37° C. in 5% CO2 atmosphere. A375, COLO205 and SK-MEL-2 cell were seeded into 96-well plates at 2000, 2000, and 4000 cells/well, respectively, and allowed to adhere for overnight. Then, these seeded cells were treated with increasing concentrations of the test compounds and incubated for another 72 hours. At the end of the incubation, CELLTITER 96® Aqueous One Solution Reagent (Promega) was added and incubated for 4 hours. Cell viability was determined by measuring absorbance at 490 nm using EMAX® microplate reader (Molecular Devices).
(§2) The 50% inhibitory concentration (IC50) value was calculated by plotting the percentage of growth inhibition against the concentration of compound, using GraphPad Prism5 software for curve fitting.

B-Raf^V600E kinase = target: T2, B-Raf^V600E kinase (Homo sapiens, UniProt P15056, V600E); assay: B-Raf V600E kinase assay ([33P] incorporation into MEK1 K97R); assay type: biochemical; conditions: recombinant B-Raf^V600E, 8 μM ATP, 30 min, 30° C.; read-out: IC50 ranking against B-Raf^V600E kinase
T2 construct: purchased Upstate Biotechnology
T2 sequence (P15056 whole entry V600E): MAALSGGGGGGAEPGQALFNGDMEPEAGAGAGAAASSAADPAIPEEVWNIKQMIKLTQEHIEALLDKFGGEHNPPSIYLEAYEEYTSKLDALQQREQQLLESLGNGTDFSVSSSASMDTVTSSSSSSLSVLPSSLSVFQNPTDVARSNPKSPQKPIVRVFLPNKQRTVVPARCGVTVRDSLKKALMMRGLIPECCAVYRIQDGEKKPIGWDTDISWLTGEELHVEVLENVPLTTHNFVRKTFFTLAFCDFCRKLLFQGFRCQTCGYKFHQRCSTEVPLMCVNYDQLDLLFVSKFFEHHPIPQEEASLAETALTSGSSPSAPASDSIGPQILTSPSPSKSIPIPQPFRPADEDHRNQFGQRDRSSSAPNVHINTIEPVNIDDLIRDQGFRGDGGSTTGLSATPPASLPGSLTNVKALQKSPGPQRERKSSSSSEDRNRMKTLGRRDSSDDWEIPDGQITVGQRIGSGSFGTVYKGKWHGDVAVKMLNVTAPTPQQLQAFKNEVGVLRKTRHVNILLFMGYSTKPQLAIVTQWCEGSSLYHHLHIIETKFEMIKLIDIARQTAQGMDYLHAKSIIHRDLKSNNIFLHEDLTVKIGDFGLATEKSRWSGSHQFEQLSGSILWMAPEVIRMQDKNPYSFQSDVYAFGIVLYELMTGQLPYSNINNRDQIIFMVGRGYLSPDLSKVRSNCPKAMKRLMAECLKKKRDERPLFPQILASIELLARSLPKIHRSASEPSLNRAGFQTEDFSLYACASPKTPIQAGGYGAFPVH
Description: (§3) Inhibition of kinase activity by a test compound disclosed herein was estimated by quantifying the amount of [^33P] incorporation of a substrate in the presence of the test compound. Standard assay conditions were 5 ng of recombinant B-Raf^V600E kinase (Upstate Biotechnology) with 500 ng MEK1 (K97R) in assay buffer (8 μM ATP, 0.5 μCi [^33P]ATP (specific activity 3000 Ci/mmol, PerkinElmer), 50 mM Tris/HCl (pH 7.5), and 1 mM EGTA, 1 mM Na3VO4, 1% 2-mercaptoethanol, 0.1% Brij 35, and 0.2 mg/ml BSA), and the test compound (diluted with 4% DMSO) or DMSO alone (as a control) in a final volume of 25 μL. Reactions were incubated at 30° C. for 30 min and stopped by adding 3% phosphoric acid, harvested onto a 96-well GF/B UniFilter (PerkinElmer) using a unifilter harvester (PerkinElmer), and counted with a TopCount microplate scintillation counter (PerkinElmer). The IC50 values of inhibitors were determined after carrying out assays at 3-fold serially diluted concentrations of each compound in duplication. The results were analyzed using linear regression software (GraphPad Prism 4; GraphPad Software Inc.).

[2] = system: SK-MEL-2 melanoma cell with wild type B-Raf (B-Raf^wt) and NRAS^Q61R mutation; assay: Cell proliferation assay (CELLTITER 96), SK-MEL-2; assay type: cell-based; conditions: Homo sapiens; SK-MEL-2, 72 hours; given as bound; read-out: Cytotoxicity (IC50 Ranking) SK-MEL-2 (NRAS^Q61R, B-Raf^wt)
Description: as §1, §2

[3] = system: B-Raf^V600E mutant COLO205 colon cancer cell; assay: Cell proliferation assay (CELLTITER 96), COLO205; assay type: cell-based; conditions: Homo sapiens, COLO 205; COLO205, 72 hours; read-out: Cytotoxicity (IC50 Ranking) COLO205 (B-Raf^V600E)
Description: as §1, §2

C-Raf kinase = target: T3, C-Raf kinase (Homo sapiens, UniProt P04049); assay: C-Raf kinase assay ([33P] incorporation into MEK1 K97R); assay type: biochemical; conditions: recombinant C-Raf, 8 μM ATP, 30 min, 30° C.; read-out: IC50 ranking against C-Raf kinase
T3 construct: purchased Upstate Biotechnology
T3 sequence (P04049 whole entry): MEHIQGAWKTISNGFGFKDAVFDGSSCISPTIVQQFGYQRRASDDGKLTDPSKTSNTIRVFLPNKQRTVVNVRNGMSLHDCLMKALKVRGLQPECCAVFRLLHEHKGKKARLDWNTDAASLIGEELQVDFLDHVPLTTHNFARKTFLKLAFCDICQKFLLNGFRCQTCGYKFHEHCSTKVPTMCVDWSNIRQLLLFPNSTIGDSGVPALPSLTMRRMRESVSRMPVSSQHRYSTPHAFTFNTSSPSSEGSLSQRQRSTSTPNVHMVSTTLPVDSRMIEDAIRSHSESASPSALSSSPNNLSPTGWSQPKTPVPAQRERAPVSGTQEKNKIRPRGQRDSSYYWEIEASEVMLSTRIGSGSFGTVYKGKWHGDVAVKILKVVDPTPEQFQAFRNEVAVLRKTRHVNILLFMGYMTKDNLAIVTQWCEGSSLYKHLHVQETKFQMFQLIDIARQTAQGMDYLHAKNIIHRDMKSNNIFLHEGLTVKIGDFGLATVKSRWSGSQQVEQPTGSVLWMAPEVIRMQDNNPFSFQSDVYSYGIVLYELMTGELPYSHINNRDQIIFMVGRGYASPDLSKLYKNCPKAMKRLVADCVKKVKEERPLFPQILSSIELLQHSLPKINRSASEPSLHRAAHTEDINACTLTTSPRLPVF
Description: as §3, with “were 2” for “were 5”, “recombinant C-Raf” for “recombinant B-Raf^V600E”, “ng MEK1(K97R)” for “ng MEK1 (K97R)”

T1 sequence (P15056 whole entry): as the sequence (P15056 whole entry V600E) above, with E600V counted along it

Row | IC50 (B-Raf kinase) [nM] | IC50 (B-Raf^V600E kinase) [nM] | IC50 (C-Raf kinase) [nM] | Structure (SMILES) | IC50 [1] [nM] | IC50 [2] [nM] | IC50 [3] [nM]
1 | 1000 to 10000 |  |  | CCCS(=O)(=O)Nc1ccc(F)c(Nc2cc3nc(OC)cnc3cc2C)c1F [compound 32, N-(2,4-difluoro-3-(3-methoxy-7-methylquinoxalin-6-ylamino)phenyl)propane-1-sulfonamide] |  |  | 
2 | 300 to 1000 | 300 to 1000 | 300 to 1000 | CCCS(=O)(=O)Nc1ccc(F)c(Nc2ccc3ncc(NC(=O)C4CC4)nc3c2)c1F [compound 8, N1-(7-{2,6-difluoro-3-[(propylsulfonyl)amino]anilino}-2-quinoxalinyl)-1-cyclopropanecarboxamide] | 1000 to 10000 | > 10000 | 1000 to 10000
3 | < 300 | < 300 | < 300 | CCCS(=O)(=O)Nc1ccc(F)c(Nc2ccc3ncc(Nc4cccnc4)nc3c2)c1F [compound 12, N1-(2,4-difluoro-3-{[3-(3-pyridylamino)-6-quinoxalinyl]amino}phenyl)-1-propanesulfonamide] | 1000 to 10000 | > 10000 | 300 to 1000
4 | < 300 | < 300 | < 300 | CCCS(=O)(=O)Nc1ccc(F)c(Nc2ccc3ncc(O)nc3c2C#N)c1F [compound 15, N1-{3-[(5-cyano-3-hydroxy-6-quinoxalinyl)amino]-2,4-difluorophenyl}-1-propanesulfonamide] | 300 to 1000 | > 10000 | 300 to 1000
5 | < 300 | < 300 | < 300 | CCCS(=O)(=O)Nc1ccc(F)c(Nc2ccc3ncc(OC)nc3c2C(=O)OC)c1F [compound 31, methyl 6-(2,6-difluoro-3-(propylsulfonamido)phenylamino)-3-methoxyquinoxaline-5-carboxylate] | 300 to 1000 | > 10000 | 300 to 1000
6 | < 300 | < 300 | < 300 | CCCS(=O)(=O)Nc1ccc(F)c(Nc2ccc3ncc(N(C)C)nc3c2C#N)c1F [compound 18, N-(3-(5-cyano-3-(dimethylamino)quinoxalin-6-ylamino)-2,4-difluorophenyl)propane-1-sulfonamide] | < 300 | > 10000 | < 300
7 | < 300 | < 300 | < 300 | CCCS(=O)(=O)Nc1ccc(F)c(Nc2ccc3ncc(OC)nc3c2[N+](=O)[O-])c1F [compound 4, N1-{2,4-difluoro-3-[(3-methoxy-5-nitro-6-quinoxalinyl)amino]phenyl}-1-propanesulfonamide] | < 300 | > 10000 | < 300
8 | 300 to 1000 | 300 to 1000 | 300 to 1000 | CCCS(=O)(=O)Nc1ccc(F)c(Nc2ccc3ncc(OC)nc3c2N)c1F [compound 3, N1-{3-[(5-amino-3-methoxy-6-quinoxalinyl)amino]-2,4-difluorophenyl}-1-propanesulfonamide] |  |  | 

More lines, now with the values behind:

Row | Structure (SMILES) | IC50 (B-Raf kinase) [nM] | IC50 (B-Raf^V600E kinase) [nM] | IC50 (C-Raf kinase) [nM] | IC50 [1] [nM] | IC50 [2] [nM] | IC50 [3] [nM]
9 | CN(C)c1cnc2ccc(Nc3cc(NS(=O)(=O)c4ccccc4)ccc3F)c(C#N)c2n1 [compound 37, N-(3-(5-cyano-3-(dimethylamino)quinoxalin-6-ylamino)-4-fluorophenyl)benzenesulfonamide] | < 300 | < 300 | < 300 | 1000 to 10000 | > 10000 | 1000 to 10000
10 | CCOc1cnc2ccc(Nc3cc(NS(=O)(=O)c4ccccc4)ccc3F)c(C#N)c2n1 [compound 24, N-(3-(5-cyano-3-ethoxyquinoxalin-6-ylamino)-4-fluorophenyl)benzenesulfonamide] | < 300 | < 300 | < 300 | 300 to 1000 | > 10000 | < 300
11 | CCCS(=O)(=O)Nc1ccc(F)c(Nc2ccc3ncc(N4CCOCC4)nc3c2C#N)c1F [compound 19, N-(3-(5-cyano-3-morpholinoquinoxalin-6-ylamino)-2,4-difluorophenyl)propane-1-sulfonamide] | < 300 | < 300 | < 300 | < 300 | > 10000 | < 300
12 | CCCS(=O)(=O)Nc1ccc(F)c(Nc2ccc3ncc(N(C)C)nc3c2C#N)c1 [compound 28, N-(3-(5-cyano-3-(dimethylamino)quinoxalin-6-ylamino)-4-fluorophenyl)propane-1-sulfonamide] | 300 to 1000 | 300 to 1000 | < 300 | 300 to 1000 | > 10000 | < 300
13 | CCCS(=O)(=O)Nc1cccc(Nc2ccc3ncc(OC)nc3c2C#N)c1C#N [compound 50, N-(2-cyano-3-(5-cyano-3-methoxyquinoxalin-6-ylamino)phenyl)propane-1-sulfonamide] | < 300 | < 300 | < 300 | < 300 | > 10000 | < 300
14 | CCOc1cnc2ccc(Nc3cc(NS(C)(=O)=O)ccc3F)c(C#N)c2n1 [compound 27, N-(3-(5-cyano-3-ethoxyquinoxalin-6-ylamino)-4-fluorophenyl)methanesulfonamide] | 1000 to 10000 | 1000 to 10000 | 1000 to 10000 | 1000 to 10000 | > 10000 | 300 to 1000
15 | COc1cnc2ccc(Nc3c(F)ccc(NS(=O)(=O)CCCF)c3F)c([N+](=O)[O-])c2n1 [compound 5, N1-{2,4-difluoro-3-[(3-methoxy-5-nitro-6-quinoxalinyl)amino]phenyl}-3-fluoro-1-propanesulfonamide] | < 300 | < 300 | < 300 | < 300 | > 10000 | < 300
16 | CCCS(=O)(=O)Nc1cc(Nc2ccc3ncc(OC)nc3c2C#N)ccc1C [compound 45, N-(5-(5-cyano-3-methoxyquinoxalin-6-ylamino)-2-methylphenyl)propane-1-sulfonamide] | 1000 to 10000 | 1000 to 10000 | 1000 to 10000 |  |  | 
